The target of one data set is T1, LAO.0 (Salmonella enterica, UniProt P02911).
T1 construct: gene argT
In words: Isothermal titration calorimetry of the purified protein with its cognate ligand at 25 °C in SEC running buffer (25 mM sodium phosphate, 500 mM NaCl, pH 7.4), fitted with a one-site binding model. To be noted: SD, n = 3. The procedure:
(§1) Ligands were dissolved in the specific buffer that was used in the size-exclusion chromatography (SEC) run of each protein purification (stored at −20 °C and thawed on the day of use). All protein and ligand samples were degassed and the temperature equilibrated to 25 °C for at least 10 min using a degassing station (TA Instruments). 400 μL of protein samples was loaded into the sample cell of a low volume AffinityITC machine with gold cell (TA Instruments) and ligand solutions were added into the injection syringe (protein and ligand concentrations can be found in Table S5). ITC measurements were performed at 25 °C with 20 injections of 2.5 μL (one initial injection of 0.5 μL was excluded from analysis), an adaptive injection interval, and stirring rate of 125 rpm. Subtractions of constant heat of dilution values for each ligand, peak integration, and fitting with a one-site binding model were done with NanoAnalyze (TA Instruments). The reported errors reflect the standard deviation of three technical replicas.
For orientation: Isothermal titration calorimetry measures the heat released or taken up as one component is titrated into another.

The target in a further data set is LAO.1. Described as above. To be noted: SD, n = 3. The procedure:
as §1

In a further data set the target is LAO.2. The description is as above. To be noted: SD, n = 3. The procedure: as §1
A further data set has as its target LAO.3. The description is as above. As to conditions: SD, n = 3. The procedure:
as §1

For the next data set, the target named is LAO.4. The data set is described as above. To be noted: SD, n = 3. Here is the method:
as §1

The next data set addresses PotF.2. As to conditions: SD, n = 3. Here is the method: as §1
For another data set, the target named is PotF.4. As to conditions: SD, n = 3. Here is the method: as §1
The target of the next data set is PotF.0 (Escherichia coli, UniProt P31133). In words: Isothermal titration calorimetry of the purified protein with its cognate ligand at 25 °C in SEC running buffer (25 mM sodium phosphate, 500 mM NaCl, pH 7.4), fitted with a one-site binding model. To be noted: SD, n = 3. The procedure:
as §1

A further data set deals with PotF.1 (Escherichia coli, UniProt P31133, A203P/A327P/A339P/E108N/E331D/F129Y/F266Y/F313Y/K122Q/K202N/M131I/N154D/S178A/S252A/S265A/S267T/S326N/T322L/V186I/V264I/V305M/V46I). The description is as above. As to conditions: SD, n = 3. Here is the method: as §1
In another data set the target is PotF.3 (Escherichia coli, UniProt P31133, A339P/E108N/E331D/F129Y/F266Y/K202N/N154D/S178A/S252A/S265A/T94S/V186I). The description is as above. As to conditions: SD, n = 3. Here is the method: as §1
In the next data set the target is TphC.0. The description is as above. To be noted: SD, n = 3. Here is the method: as §1
The target of the next data set is TphC.1. The description is as above. To be noted: SD, n = 3. The procedure: as §1
A further data set addresses TphC.2. The description is as above. As to conditions: SD, n = 3. The procedure:
as §1

The next data set concerns the target TphC.3. The description is as above. As to conditions: SD, n = 3. The procedure:
as §1

For the next data set, the target named is TphC.4. The description is as above. To be noted: SD, n = 3. Here is the method: as §1
In another data set the target is MBP.1. The data set is described as above. As to conditions: SD, n = 3. The procedure:
as §1

The next data set has as its target MBP.2. Described as above. As to conditions: n = 3. The procedure: as §1
A further data set concerns the target MBP.3. Described as above. As to conditions: SD, n = 3. The procedure: as §1
Another data set concerns the target MBP.4. The description is as above. To be noted: SD, n = 3. Here is the method: as §1
Data set [1] can be described thus: CD thermal melt (Tmelt) of apo protein. It is filed as physicochemical. To be noted: CD at 222 nm, 20 to 95 °C, 1 °C/min, apo protein 0.2 mg/mL, pH 7.4, error from fit uncertainty. The procedure:
To remove salts, protein samples were dialyzed overnight against 2 L of CD buffer (25 mM NaH2PO4/Na2HPO4, pH 7.4) using a 10 kDa molecular weight cutoff. Aggregated protein was removed by centrifugation at 15 000g for 5 min using a tabletop centrifuge (Eppendorf 5427R). Next, the protein concentration was adjusted to 0.3 mg/mL and verified photometrically. 200 μL of protein samples were mixed with either 100 μL of CD buffer or 100 μL of ligand solution (300 μM stocks of ligand solubilized in CD buffer) to reach a final concentration of 100 μM for the ligands and 0.2 mg/mL for the protein. CD spectra and thermal melt experiments were obtained on a JASCO J-1500 instrument using a glass cuvette with a 1 mm path length. For CD spectra, the following settings were used: wavelengths 240–190 nm, bandwidth 1 nm, response time 2 s, data pitch 0.1 nm, scanning speed 100 nm/min, and ten accumulations (for buffer controls only one accumulation was used). For Tmelt measurements, the following settings were used: wavelength of 222 nm, temperature range from 20 to 95 °C controlled by a Pelletier AWC100 (Julabo) using a slope of 1 °C/min, a bandwidth of 1 nm, and a response time of 2 s. Raw CD data were normalized by subtraction of the respective buffer data and subsequent conversion of the measured signal in millidegree to mean residue molar ellipticity. To obtain the apparent melting temperature T m, thermal melt data were fit using a sigmoidal equation according to Niklasson et al. The error plotted stems from the fit function uncertainty.

A short description of data set [2]: Isothermal titration calorimetry, PotF variants with putrescine. To be noted: ITC, 25 °C. It counts as binding. An excerpt: Protein Design ID Experimental Protein Ligand target repeat concentration concentration (µM) […]
Details of data set [3]: method as in previously published binding constants. To be noted: wild type PotF; ref previously published binding constants; read-out: binding constant; cited from earlier work.
The nature of data set [4]: Isothermal titration calorimetry, LAO variants with L-lysine. It is filed as binding. As to conditions: ITC, 25 °C. The text has this:
buffer-lysine 1 - 3 - 300
Supporting Table 5. Protein and ligand concentrations for ITC measurements

Details of data set [5]: method as in previously published binding constants. To be noted: wild type LAO; ref previously published binding constants; read-out: binding constant; cited from earlier work.

The source of these data is article PMC12814167, “Optimizing Stability in Dynamic Small-Molecule Binding Proteins” (Journal of the American Chemical Society, 2025).

Like-named read-outs stand apart in the source and are kept apart here. Some results are limits rather than exact numbers.

Sequence of PotF.3 (P31133 27-370 T94S/E108N/F129Y/N154D/S178A/V186I/K202N/S252A/S265A/F266Y/E331D/A339P): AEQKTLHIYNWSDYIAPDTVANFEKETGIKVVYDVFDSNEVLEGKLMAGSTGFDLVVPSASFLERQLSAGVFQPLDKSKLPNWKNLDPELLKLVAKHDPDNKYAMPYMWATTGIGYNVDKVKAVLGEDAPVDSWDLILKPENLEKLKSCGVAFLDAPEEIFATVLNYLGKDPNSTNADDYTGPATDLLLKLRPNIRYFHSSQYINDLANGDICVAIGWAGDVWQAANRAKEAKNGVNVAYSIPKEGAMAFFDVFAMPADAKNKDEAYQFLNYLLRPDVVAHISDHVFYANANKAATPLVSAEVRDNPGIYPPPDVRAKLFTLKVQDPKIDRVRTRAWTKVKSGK
Sequence of PotF.1 (P31133 other isoform, or with tags, fused parts or gaps with the stated changes): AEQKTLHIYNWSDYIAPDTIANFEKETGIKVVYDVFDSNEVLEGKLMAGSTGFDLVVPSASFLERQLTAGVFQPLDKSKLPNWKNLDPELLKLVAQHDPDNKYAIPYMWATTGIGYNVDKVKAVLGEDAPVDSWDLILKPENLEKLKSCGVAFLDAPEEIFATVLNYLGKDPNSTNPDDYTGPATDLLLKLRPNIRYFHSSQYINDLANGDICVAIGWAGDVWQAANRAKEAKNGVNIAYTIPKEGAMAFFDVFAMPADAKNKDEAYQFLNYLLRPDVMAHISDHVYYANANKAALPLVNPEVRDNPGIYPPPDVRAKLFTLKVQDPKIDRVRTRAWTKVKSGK

For `NCCCC[C@H](N)C(=O)O` [L-lysine], the Kd on LAO.0 turned out to be 93 ± 35 nM; at LAO.1, 2500 ± 211 nM; on LAO.2, 612 ± 56 nM; on LAO.3 it was 824 ± 18 nM; on LAO.4 it was 150 ± 21 nM.
For `NCCCCN` [putrescine], the Kd on PotF.2 was 42 ± 12 nM; on PotF.4, 103 ± 10 nM; on PotF.0, 42 ± 3 nM; at PotF.1, 479 ± 12 nM; at PotF.3, 101 ± 17 nM.
As for `O=C(O)c1ccc(C(=O)O)cc1` [terephthalic acid], the Kd at TphC.0 was found to be 1180 ± 250 nM; on TphC.1, 5750 ± 709 nM; on TphC.2, 627 ± 69 nM; at TphC.3, 716 ± 91 nM; on TphC.4, 282 ± 39 nM.
As to maltose, the Kd was 1310 ± 293 nM at MBP.1, less than 10000 nM at MBP.2, 450 ± 44 nM on MBP.3 and 2960 ± 675 nM at MBP.4.

B1: PotF.0: wild type putrescine-binding protein PotF, Escherichia coli (strain K12), used as control (protein, UniProt P31133 27-370, looked up)
Putrescine-binding …: AEQKTLHIYNWSDYIAPDTVANFEKETGIKVVYDVFDSNEVLEGKLMAGSTGFDLVVPSASFLERQLTAGVFQPLDKSKLPEWKNLDPELLKLVAKHDPDNKFAMPYMWATTGIGYNVDKVKAVLGENAPVDSWDLILKPENLEKLKSCGVSFLDAPEEVFATVLNYLGKDPNSTKADDYTGPATDLLLKLRPNIRYFHSSQYINDLANGDICVAIGWAGDVWQASNRAKEAKNGVNVSFSIPKEGAMAFFDVFAMPADAKNKDEAYQFLNYLLRPDVVAHISDHVFYANANKAATPLVSAEVRENPGIYPPADVRAKLFTLKVQDPKIDRVRTRAWTKVKSGK
As for B1, the “apparent T m” value in data set [1] came out at 63 ± 0.4 °C. For the same molecule, the “apparent T m” value in data set [1] (listed as PotF) is 63 °C. In [2], the “-TΔS” value came to 11.2 ± 0.287 kcal/mol, the ΔG was -10.1 ± 0.048 kcal/mol and the ΔH was -21.2 ± 0.263 kcal/mol. In addition, the Kd in data set [3] is 68 ± 40 nM.

B2: LAO.0: wild type L-lysine/L-arginine/L-ornithine binding protein LAO, Salmonella typhimurium, used as control (protein, UniProt P02911 23-260, looked up)
Lysine/arginine/ornithine-bind …: ALPQTVRIGTDTTYAPFSSKDAKGEFIGFDIDLGNEMCKRMQVKCTWVASDFDALIPSLKAKKIDAIISSLSITDKRQQEIAFSDKLYAADSRLIAAKGSPIQPTLESLKGKHVGVLQGSTQEAYANDNWRTKGVDVVAYANQDLIYSDLTAGRLDAALQDEVAASEGFLKQPAGKEYAFAGPSVKDKKYFGDGTGVGLRKDDTELKAAFDKALTELRQDGTYDKMAKKYFDFNVYGD
Consider B2, for which the “apparent T m” value in [1] was 47 ± 0.1 °C. Also, the “apparent T m” value in data set [1] (listed as LAO) came out at 47 °C. Also, in [4], the “-TΔS” value came out at 3.56 ± 0.382 kcal/mol, the ΔG was -9.61 ± 0.22 kcal/mol and the ΔH is -13.2 ± 0.22 kcal/mol. For the same molecule, the Kd in data set [5] was 232 ± 106 nM.
